From PubChem BioAssay AID1845205 (Molecular Pharmacology Branch, DTP, NCI, 2023)
Several values for one entry are separate records, joined by “and”; a condition that tells them apart may be missing. Equal values may be shown once. Activity calls are given as the source filed them. How the source made its calls: active means viability on the fitted dose curve at most 10% of control; inactive means the rest.

Tested on: MPNST multicellular tumor spheroids, viability % test/control
Experiment: Anticancer human tumor MPNST cell line growth inhibition;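 on IC50: spheroids exposed to agents for seven days after three days of growth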;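 on viability, T/C: luminescence signal used as surrogate for viable cell amount; spheroids exposed to agents for seven days after three days of growth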
Settings: for viability, T/C: stronger effect = lower value
Outline: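 Complex spheroids of malignant cells with endothelial cells and mesenchymal stem cells; agents alone or combined, from near clinical Cmax (or 10 microM if unknown) down in half-log steps, 0.25% DMSO final.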

[1] = curve of first compound, second compound 0.003 µM
[2] = second compound 0.003 µM, first compound 0.0316 µM
[3] = second compound 0.003 µM, first compound 0.1 µM
[4] = second compound 0.003 µM, first compound 0.316 µM
[5] = second compound 0.003 µM, first compound 1 µM
[6] = second compound 0.003 µM, first compound 3.16 µM
[7] = second compound 0.003 µM, first compound 10 µM

For `O=C(c1cc(Cc2n[nH]c(=O)c3ccccc23)ccc1F)N1CCN(C(=O)C2CC2)CC1` + Cn1nnc2c(C(N)=O)ncn2c1=O, the IC50 (curve of first compound, second compound 1 µM) was 17.7 µM, the IC50 (curve of first compound, second compound 3.16 µM) was 22.9 µM and the IC50 (curve of first compound, second compound 10 µM) was 26.4 µM. It also gave an IC50 (curve of first compound, second compound 31.6 µM) of 16.4 µM, an IC50 (curve of first compound, second compound 100 µM) of 2.85 µM and a viability, T/C (second compound 1 µM, first compound 0.0949 µM) of 70.9%. The viability, T/C (second compound 1 µM, first compound 0.3 µM) was 77.9%, the viability, T/C (second compound 1 µM, first compound 0.949 µM) was 82% and the viability, T/C (second compound 1 µM, first compound 3 µM) was 71.9%. For the same molecule, the viability, T/C (second compound 1 µM, first compound 9.49 µM) was 56.1%, the viability, T/C (second compound 1 µM, first compound 30 µM) was 44.9% and the viability, T/C (second compound 3.16 µM, first compound 0.0949 µM) was 83.8%. The viability, T/C (second compound 3.16 µM, first compound 0.3 µM) was 80.2%, the viability, T/C (second compound 3.16 µM, first compound 0.949 µM) was 92.1% and the viability, T/C (second compound 3.16 µM, first compound 3 µM) was 77.2%. For the same molecule, the viability, T/C (second compound 3.16 µM, first compound 9.49 µM) was 65.3%, the viability, T/C (second compound 3.16 µM, first compound 30 µM) was 45.4% and the viability, T/C (second compound 10 µM, first compound 0.0949 µM) was 118%. For the same molecule, the viability, T/C (second compound 10 µM, first compound 0.3 µM) was 95.2%, the viability, T/C (second compound 10 µM, first compound 0.949 µM) was 87.6% and the viability, T/C (second compound 10 µM, first compound 3 µM) was 66.2%. For the same molecule, the viability, T/C (second compound 10 µM, first compound 9.49 µM) was 60.9%, the viability, T/C (second compound 10 µM, first compound 30 µM) was 48.1% and the viability, T/C (second compound 31.6 µM, first compound 0.0949 µM) was 82.6%. The viability, T/C (second compound 31.6 µM, first compound 0.3 µM) was 107%, the viability, T/C (second compound 31.6 µM, first compound 0.949 µM) was 80.2% and the viability, T/C (second compound 31.6 µM, first compound 3 µM) was 70.3%. It also gave a viability, T/C (second compound 31.6 µM, first compound 9.49 µM) of 54.1%, a viability, T/C (second compound 31.6 µM, first compound 30 µM) of 45.8% and a viability, T/C (second compound 100 µM, first compound 0.0949 µM) of 83.4%. The viability, T/C (second compound 100 µM, first compound 0.3 µM) was 85.6%, the viability, T/C (second compound 100 µM, first compound 0.949 µM) was 72.6% and the viability, T/C (second compound 100 µM, first compound 3 µM) was 49.2%. For the same molecule, the viability, T/C (second compound 100 µM, first compound 9.49 µM) was 46.1% and the viability, T/C (second compound 100 µM, first compound 30 µM) was 44.7%.

`Cc1cc(C)c(CNC(=O)c2cc(-c3ccc(CN4CCOCC4)cc3)cc3c2cnn3C2CCCC2)c(=O)[nH]1` + CC[C@@]1(O)C(=O)OCc2c1cc1n(c2=O)Cc2cc3c(CN(C)C)c(O)ccc3nc2-1 showed an IC50 [1] greater than 10 µM, an IC50 (curve of first compound, second compound 0.00949 µM) greater than 10 µM and an IC50 (curve of first compound, second compound 0.03 µM) greater than 10 µM. It also gave an IC50 (curve of first compound, second compound 0.0949 µM) greater than 10 µM, an IC50 (curve of first compound, second compound 0.3 µM) of less than 0.0316 µM and a viability, T/C [2] of 86%. For the same molecule, the viability, T/C [3] was 79.4%, the viability, T/C [4] was 88.8% and the viability, T/C [5] was 83.2%. The viability, T/C [6] was 93.3%, the viability, T/C [7] was 87.5% and the viability, T/C (second compound 0.00949 µM, first compound 0.0316 µM) was 80.3%. The viability, T/C (second compound 0.00949 µM, first compound 0.1 µM) was 70%, the viability, T/C (second compound 0.00949 µM, first compound 0.316 µM) was 91% and the viability, T/C (second compound 0.00949 µM, first compound 1 µM) was 71.4%. It also gave a viability, T/C (second compound 0.00949 µM, first compound 3.16 µM) of 76.1%, a viability, T/C (second compound 0.00949 µM, first compound 10 µM) of 78.9% and a viability, T/C (second compound 0.03 µM, first compound 0.0316 µM) of 55.4%. It also gave a viability, T/C (second compound 0.03 µM, first compound 0.1 µM) of 54.6%, a viability, T/C (second compound 0.03 µM, first compound 0.316 µM) of 50% and a viability, T/C (second compound 0.03 µM, first compound 1 µM) of 53%. The viability, T/C (second compound 0.03 µM, first compound 3.16 µM) was 58.2%, the viability, T/C (second compound 0.03 µM, first compound 10 µM) was 68.2% and the viability, T/C (second compound 0.0949 µM, first compound 0.0316 µM) was 51.8%. For the same molecule, the viability, T/C (second compound 0.0949 µM, first compound 0.1 µM) was 52.1%, the viability, T/C (second compound 0.0949 µM, first compound 0.316 µM) was 51.1% and the viability, T/C (second compound 0.0949 µM, first compound 1 µM) was 52.4%. The viability, T/C (second compound 0.0949 µM, first compound 3.16 µM) was 50.3%, the viability, T/C (second compound 0.0949 µM, first compound 10 µM) was 58.3% and the viability, T/C (second compound 0.3 µM, first compound 0.0316 µM) was 41.7%. The viability, T/C (second compound 0.3 µM, first compound 0.1 µM) was 41%, the viability, T/C (second compound 0.3 µM, first compound 0.316 µM) was 43.2% and the viability, T/C (second compound 0.3 µM, first compound 1 µM) was 37.8%. It also gave a viability, T/C (second compound 0.3 µM, first compound 3.16 µM) of 42.6% and a viability, T/C (second compound 0.3 µM, first compound 10 µM) of 45.4%.

In the case of `COc1ccc([C@@H](O)c2cc(-c3ncnc4cc(N5CCOCC5)ccc34)c(F)cc2Cl)nn1`, the viability, T/C (compound 0.0316 µM) is reported as 33.1% and 109% and 92.9%, the viability, T/C (compound 0.1 µM) is reported as 26% and 94% and 75.6% and the viability, T/C (compound 0.316 µM) is reported as 21.6% and 87.5% and 78.7%. For the same molecule, the outcome (compound 1 µM) was “inactive” and the viability, T/C (compound 1 µM) was 14.7% and 50.9%.

Molecule `CC(C)n1c(=O)n(C)c2cnc3cc(F)c(-c4ccc(OCCCN5CCCCC5)nc4)cc3c21` + COc1cc2c(cc1O)CCNC21CSC2c3c(OC(C)=O)c(C)c4c(c3C(COC1=O)N1C(O)C3Cc5cc(C)c(OC)c(O)c5C(C21)N3C)OCO4 has an IC50 (curve of first compound, second compound 30 pM) greater than 10 µM, an IC50 (curve of first compound, second compound 94.9 pM) greater than 10 µM and an IC50 (curve of first compound, second compound 0.0003 µM) greater than 10 µM. For the same molecule, the IC50 (curve of first compound, second compound 0.000949 µM) was less than 0.0316 µM, the IC50 [1] was less than 0.0316 µM and the viability, T/C (second compound 30 pM, first compound 0.0316 µM) was 94.6%. It also gave a viability, T/C (second compound 30 pM, first compound 0.1 µM) of 76.6%, a viability, T/C (second compound 30 pM, first compound 0.316 µM) of 79.8% and a viability, T/C (second compound 30 pM, first compound 1 µM) of 135%. For the same molecule, the viability, T/C (second compound 30 pM, first compound 3.16 µM) was 110%, the viability, T/C (second compound 30 pM, first compound 10 µM) was 72.2% and the viability, T/C (second compound 94.9 pM, first compound 0.0316 µM) was 72.3%. The viability, T/C (second compound 94.9 pM, first compound 0.1 µM) was 68.9%, the viability, T/C (second compound 94.9 pM, first compound 0.316 µM) was 79.3% and the viability, T/C (second compound 94.9 pM, first compound 1 µM) was 64.6%. It also gave a viability, T/C (second compound 94.9 pM, first compound 3.16 µM) of 63.5%, a viability, T/C (second compound 94.9 pM, first compound 10 µM) of 59.3% and a viability, T/C (second compound 0.0003 µM, first compound 0.0316 µM) of 55.8%. The viability, T/C (second compound 0.0003 µM, first compound 0.1 µM) was 47.3%, the viability, T/C (second compound 0.0003 µM, first compound 0.316 µM) was 61.1% and the viability, T/C (second compound 0.0003 µM, first compound 1 µM) was 67.5%. For the same molecule, the viability, T/C (second compound 0.0003 µM, first compound 3.16 µM) was 52.5%, the viability, T/C (second compound 0.0003 µM, first compound 10 µM) was 40.8% and the viability, T/C (second compound 0.000949 µM, first compound 0.0316 µM) was 47.2%. The viability, T/C (second compound 0.000949 µM, first compound 0.1 µM) was 46.6%, the viability, T/C (second compound 0.000949 µM, first compound 0.316 µM) was 45.5% and the viability, T/C (second compound 0.000949 µM, first compound 1 µM) was 48.1%. It also gave a viability, T/C (second compound 0.000949 µM, first compound 3.16 µM) of 45.2%, a viability, T/C (second compound 0.000949 µM, first compound 10 µM) of 37.1% and a viability, T/C [2] of 13.8%. For the same molecule, the viability, T/C [3] was 13.6%, the viability, T/C [4] was 11.6% and the viability, T/C [5] was 10.3%. For the same molecule, the viability, T/C [6] was 10% and the viability, T/C [7] was 6.09%.

`COc1cc(C)[nH]c(=O)c1CN1CCc2c(Cl)cc(C(OC)C3COC3)c(Cl)c2C1=O` (configuration not stated) was tested, and the viability, T/C (compound 0.0316 µM) was 77.2% and 80.5% and 102%, the viability, T/C (compound 0.1 µM) was 79.6% and 90% and 88.8% and the viability, T/C (compound 0.316 µM) was 84.7% and 83.3% and 96%. The viability, T/C (compound 1 µM) was 95.8% and 93.7% and 93.3%, the viability, T/C (compound 3.16 µM) was 89.1% and 96.8% and 98.1% and the viability, T/C (compound 10 µM) was 85.9% and 98.7% and 92.1%. The IC50 (curve of compound) was greater than 10 µM.
